Columns and labels:
Type in all cases: in vivo
[1] = tested on: large crabgrass (Digitaria sanguinalis); test: Test B pre-/postemergence plant response; conditions: Postemergence
In short: (§1)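 Compound in solvent + surfactant applied pre-em (loam/sand) or post-em (plants 2–18 cm, peat medium); greenhouse hold 13–15 days; visual 0–100 control score.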

[2] = tested on: wheat (Triticum aestivum); test: Test B pre-/postemergence plant response; conditions: Postemergence
In short: as §1

[3] = tested on: goosegrass (Eleusine indica); test: Test B pre-/postemergence plant response; conditions: Postemergence
In short: as §1

[4] = tested on: cocklebur (Xanthium strumarium); test: Test B pre-/postemergence plant response; conditions: Postemergence
In short: as §1

[5] = tested on: green foxtail (Setaria viridis); test: Test B pre-/postemergence plant response; conditions: Postemergence
In short: as §1

[6] = tested on: yellow nutsedge (Cyperus esculentus); test: Test B pre-/postemergence plant response; conditions: Postemergence
In short: as §1

[7] = tested on: lambsquarters (Chenopodium album); test: Test B pre-/postemergence plant response; conditions: Postemergence
In short: as §1

[8] = tested on: wild oat (Avena fatua); test: Test B pre-/postemergence plant response; conditions: Postemergence
In short: as §1

[9] = tested on: morningglory (Ipomoea coccinea); test: Test B pre-/postemergence plant response; conditions: Postemergence
In short: as §1

[10] = tested on: bermudagrass (Cynodon dactylon); test: Test B pre-/postemergence plant response; conditions: Postemergence
In short: as §1

[11] = tested on: barnyardgrass (Echinochloa crus-galli); test: Test B flooded paddy test; conditions: for Plant response rating, Barnyardgrass: Flood (flooded paddy test), 13 to 15 days
In short: (§2)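 Each compound is added to standing floodwater (3 cm above soil, maintained) in pots of 2-leaf-stage plants; greenhouse exposure lasts 13–15 d before visual comparison with controls on a 0–100 control scale.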

[12] = tested on: umbrella sedge (Cyperus difformis); test: Test B flooded paddy test; conditions: for Plant response rating, Sedge, Umbrella: Flood (flooded paddy test), 13 to 15 days
In short: as §2

[13] = 31 g ai/ha, 0 to 100 scale (0 no effect, 100 complete control)
[14] = 62 g ai/ha, scale 0 to 100 (0 no effect, 100 complete control)
[15] = 125 g ai/ha, scale 0 to 100 (0 no effect, 100 complete control)
[16] = 250 g ai/ha, scale 0 to 100 (0 no effect, 100 complete control), 13 to 15 days
[17] = 250 g ai/ha, flooded paddy test, visual rating on 0 to 100 scale (0 no effect, 100 complete control) after 13 to 15 days
[18] = 62 g ai/ha, scale of 0 to 100 where 0 is no effect and 100 is complete control
[19] = 125 g ai/ha, scale 0 to 100, 0 is no effect, 100 is complete control
[20] = Flood, 31 g ai/ha, scale 0 to 100 (0 no effect, 100 complete control)

For `CCCn1c(-c2ccsc2)ncc(C(=O)C2=C(O)C3CCC(C3)C2=O)c1=O` (stereo not shown) [Compound 227], the “Plant response rating, Crabgrass, Large” value [1, 13] was 80, the “Plant response rating, Crabgrass, Large” value [1, 14] was 80 and the “Plant response rating, Crabgrass, Large” value [1, 15] was 85. For the same molecule, the “Plant response rating, Crabgrass, Large” value [1, 16] was 90, the “Plant response rating, Wheat” value [2, 13] was 0 and the “Plant response rating, Wheat” value [2, 14] was 0. The “Plant response rating, Wheat” value [2, 16] was 20, the “Plant response rating, Goosegrass” value [3, 13] was 75 and the “Plant response rating, Goosegrass” value [3, 14] was 75. The “Plant response rating, Goosegrass” value [3, 15] was 75, the “Plant response rating, Goosegrass” value [3, 16] was 80 and the “Plant response rating, Cocklebur” value [4, 13] was 75. For the same molecule, the “Plant response rating, Cocklebur” value [4, 14] was 80, the “Plant response rating, Cocklebur” value [4, 15] was 95 and the “Plant response rating, Cocklebur” value [4, 16] was 95. The “Plant response rating, Foxtail, Green” value [5, 13] was 50, the “Plant response rating, Foxtail, Green” value [5, 14] was 90 and the “Plant response rating, Foxtail, Green” value [5, 15] was 90. The “Plant response rating, Foxtail, Green” value [5, 16] was 90, the “Plant response rating, Nutsedge, Yellow” value [6, 13] was 10 and the “Plant response rating, Nutsedge, Yellow” value [6, 14] was 45. The “Plant response rating, Nutsedge, Yellow” value [6, 15] was 65, the “Plant response rating, Nutsedge, Yellow” value [6, 16] was 65 and the “Plant response rating, Lambsquarters” value [7, 13] was 90. The “Plant response rating, Lambsquarters” value [7, 14] was 98, the “Plant response rating, Lambsquarters” value [7, 15] was 98 and the “Plant response rating, Lambsquarters” value [7, 16] was 98. The “Plant response rating, Oat, Wild” value [8, 13] was 0, the “Plant response rating, Oat, Wild” value [8, 14] was 0 and the “Plant response rating, Oat, Wild” value [8, 16] was 30. The “Plant response rating, Morningglory” value [9, 13] was 100, the “Plant response rating, Morningglory” value [9, 14] was 100 and the “Plant response rating, Morningglory” value [9, 15] was 100. For the same molecule, the “Plant response rating, Morningglory” value [9, 16] was 100, the “Plant response rating, Bermudagrass” value [10, 13] was 75 and the “Plant response rating, Bermudagrass” value [10, 14] was 75. The “Plant response rating, Bermudagrass” value [10, 15] was 85, the “Plant response rating, Bermudagrass” value [10, 16] was 90 and the “Plant response rating, Flood, Barnyardgrass” value [11, 17] was 60. For the same molecule, the “Plant response rating, Barnyardgrass” value [11, 18] was 40, the “Plant response rating, Barnyardgrass” value [11, 19] was 50 and the “Barnyardgrass plant response rating” value [11, 20] was 20. The “Plant response rating, Flood, Sedge, Umbrella” value [12, 17] was 85, the “Plant response rating, Sedge, Umbrella” value [12, 18] was 85 and the “Plant response rating, Sedge, Umbrella” value [12, 19] was 85. For the same molecule, the “Sedge, Umbrella plant response rating” value [12, 20] was 80.
